This note sets out measurements from ChEMBL document CHEMBL1201862, “PubChem BioAssay data set” (2004).

SMILES strings stand for the structures.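 Compound exposure: 48 hours, 5 concentrations, 96-well plates. GI50 is the concentration that inhibits growth by half.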 Calls of active or inactive are those of the source. No stated cut-off is given here; in the data, active = GI50 up to about 1.1 µM and inactive = higher. Bounds are passed on as bounds.

Some test systems named below: MOLT-4; RPMI-8226; CAKI-1; MDA-N; SF-539; SW-620; HOP-92; 786-0; COLO 205; IGROV-1; SN12C; SNB-19; SNB-75; MCF7; LOX IMVI; SF-268; UACC-62; SF-295; KM12.
Common to all, as to experiment: DTP human tumour cell line panel, 48 h

What is called GI50 is the concentration at which growth is held to half of that of the control. As to `C(=N\c1ccc(-c2nc3ccccc3o2)cc1)/c1ccco1`, the GI50 in the assay on MOLT-4 was 29 µM (inactive); in the assay on RPMI-8226 it was 0.0453 µM (active); in the assay with CAKI-1 it was 40 µM (inactive); with MDA-N, 64 µM (inactive); in the assay on SF-539, > 100 µM (inactive); in the assay with SW-620 it was > 100 µM (inactive). Besides, the GI50 with HOP-92 is 30.8 µM (inactive); in the assay on 786-0 it was 75.2 µM (inactive); in the assay on COLO 205 it was 37.7 µM (inactive); in the assay with IGROV-1, 49.4 µM (inactive); in the assay with SN12C, 61.9 µM (inactive); in the assay with SNB-19, > 100 µM (inactive). Also, the GI50 in the assay with SNB-75 was 49.1 µM (inactive); with MCF7, 91.2 µM (inactive); with LOX IMVI, 58.9 µM (inactive).

For `CC(=O)OCC(=O)OC[C@H](OCc1ccccc1)[C@@H]1[C@H](OC(C)=O)C(=O)N1Cc1ccccc1`, the GI50 in the assay with SF-268, in the assay with UACC-62, with MOLT-4, in the assay with RPMI-8226, in the assay on MDA-N and in the assay with SW-620 was > 100 µM (inactive) throughout. Moreover, the GI50 in the assay on HOP-92, with SF-295, with 786-0, with COLO 205, in the assay on IGROV-1 and in the assay with SN12C was > 100 µM (inactive) in each case. Further, the GI50 in the assay on KM12, with SNB-19, with SNB-75, with MCF7 and in the assay with LOX IMVI was > 100 µM (inactive) in each case.

Turning to `CCOC(=O)c1sc2nc(SC)nc3c2c1NCN3c1ccc2c(c1)OCO2`, the GI50 in the assay with SF-268 is 3.42 µM (inactive); in the assay with UACC-62, 12.2 µM (inactive); in the assay with MOLT-4, 26.1 µM (inactive); in the assay with RPMI-8226, 24.2 µM (inactive); in the assay with CAKI-1, 58.1 µM (inactive); in the assay with MDA-N it was 44.3 µM (inactive). The GI50 in the assay with SF-539 was 21.6 µM (inactive); with SW-620 it was 17.2 µM (inactive); with HOP-92, 12.5 µM (inactive); with SF-295 it was 10.9 µM (inactive); in the assay with 786-0 it was 4.34 µM (inactive); in the assay on COLO 205, 35.2 µM (inactive). In addition, the GI50 in the assay on IGROV-1 is 26.1 µM (inactive); in the assay with SN12C, 39.4 µM (inactive); with KM12, > 100 µM (inactive); in the assay with SNB-19, 11.4 µM (inactive); in the assay on MCF7, 16.7 µM (inactive); with LOX IMVI it was 23.8 µM (inactive).

As to `Cc1ccc(SCC(CSCCO)OCn2cnc3c2N=C(N)NC32OCCO2)cc1` (stereo unspecified), the GI50 in the assay with SF-268, with MOLT-4, in the assay with RPMI-8226, in the assay on CAKI-1, in the assay with MDA-N and in the assay with SF-539 was > 100 µM (inactive) each time. In addition, the GI50 in the assay on SW-620, in the assay with HOP-92, in the assay on SF-295, in the assay on 786-0, with IGROV-1 and in the assay with SNB-19 was > 100 µM (inactive) in each case. For the same compound, the GI50 in the assay with SNB-75, in the assay on MCF7 and with LOX IMVI was > 100 µM (inactive) in each case.

`C=C1N(S(=O)(=O)c2ccc(C)cc2)C(=O)OCC12CCCC2`: the GI50 in the assay on UACC-62 is 34.6 µM (inactive); in the assay with MOLT-4 it was 77.4 µM (inactive); in the assay on RPMI-8226, > 100 µM (inactive); with CAKI-1, 94.4 µM (inactive); in the assay on MDA-N, > 100 µM (inactive); in the assay with SF-539 it was > 100 µM (inactive). Also, the GI50 in the assay with SW-620 was > 100 µM (inactive); in the assay with HOP-92, > 100 µM (inactive); with SF-295, > 100 µM (inactive); in the assay with 786-0, > 100 µM (inactive); with COLO 205, 72.8 µM (inactive); with IGROV-1, 31.3 µM (inactive). The GI50 in the assay with KM12 was > 100 µM (inactive); in the assay with SNB-19 it was > 100 µM (inactive); in the assay on SNB-75, 14.1 µM (inactive); in the assay with MCF7 it was > 100 µM (inactive); in the assay on LOX IMVI, > 100 µM (inactive).

For `COc1ccc(NC(=S)Nc2c(C)n(C)n(-c3ccccc3)c2=O)cc1`, the GI50 in the assay with SF-268, in the assay with UACC-62, with MOLT-4, in the assay with RPMI-8226, in the assay with CAKI-1 and in the assay on MDA-N was > 100 µM (inactive) in each case. Also, the GI50 in the assay on SF-539, in the assay with SW-620, in the assay on HOP-92, with SF-295, in the assay with 786-0 and in the assay with COLO 205 was > 100 µM (inactive) in each case. The GI50 in the assay with IGROV-1, in the assay with KM12, in the assay with SNB-19, in the assay with SNB-75, in the assay with MCF7 and in the assay with LOX IMVI was > 100 µM (inactive) throughout.

Take `S=c1c2cc(I)ccc2nc(S)n1Cc1ccccc1`: the GI50 in the assay with SF-268 is 6.43 µM (inactive); in the assay on MOLT-4, 3.18 µM (inactive); in the assay with RPMI-8226, 2.95 µM (inactive); in the assay with CAKI-1, 3.78 µM (inactive); in the assay with MDA-N, 3.83 µM (inactive); with SF-539, 10.3 µM (inactive). Besides, the GI50 was 3.72 µM (inactive) with SW-620; 2.69 µM (inactive) in the assay with HOP-92; 2.99 µM (inactive) in the assay with SF-295; 5.96 µM (inactive) with 786-0; 10.7 µM (inactive) with COLO 205; 4.05 µM (inactive) in the assay with IGROV-1. Further, the GI50 in the assay with SN12C was 3.16 µM (inactive); in the assay on KM12, 3.42 µM (inactive); with SNB-19 it was 4.32 µM (inactive); with SNB-75 it was 2.69 µM (inactive); in the assay with MCF7, 5.42 µM (inactive); with LOX IMVI, 3.4 µM (inactive).

As for `C[n+]1ccccc1/C1=c2\cc/c([nH]2)=C(\c2cccc[n+]2C)C2=N/C(=C(/c3cccc[n+]3C)C3C=CC(N3)/C(c3cccc[n+]3C)=C3/C=CC1=N3)C=C2`, the GI50 was > 100 µM (inactive) with SF-268; > 100 µM (inactive) with UACC-62; 58.1 µM (inactive) with MOLT-4; 56.1 µM (inactive) in the assay on RPMI-8226; > 100 µM (inactive) in the assay with CAKI-1; > 100 µM (inactive) in the assay with MDA-N. Further, the GI50 is > 100 µM (inactive) in the assay with SF-539; 73.3 µM (inactive) in the assay on SW-620; 90.6 µM (inactive) with HOP-92; > 100 µM (inactive) with SF-295; > 100 µM (inactive) with 786-0; 75.2 µM (inactive) in the assay on COLO 205. Besides, the GI50 with IGROV-1 was 92.9 µM (inactive); in the assay on SN12C it was > 100 µM (inactive); in the assay on KM12, 62.4 µM (inactive); in the assay on SNB-19 it was > 100 µM (inactive); with MCF7 it was > 100 µM (inactive); in the assay with LOX IMVI it was > 100 µM (inactive).
